Results published in PubChem BioAssay AID248 (DTP/NCI, 2004).
Inconclusive results and toxic doses are left out. No stated cut-off is given here; in the data, active means T/C of 150% or more; inactive means T/C below 125%.

System: L1210 leukemia ip in BDF1 mice, survival T/C
Assay: NCI In Vivo Anticancer Drug Screen. Data for tumor model L1210 Leukemia (intraperitoneal) in B6D2F1 (BDF1) mice
Settings: endpoint: mean survival time, higher = longer survival
In short: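 Antitumor effect is assessed in tumor-bearing animals. Survival in the compound arm is compared with a vehicle-dosed control arm and expressed as their quotient.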

[1] = dose: 100.0 mg/kg/injection, schedule: Q01DX001 (ip), vehicle: saline
[2] = dose: 200.0 mg/kg/injection, schedule: Q01DX001 (ip), vehicle: saline
[3] = dose: 400.0 mg/kg/injection, schedule: Q01DX001 (ip), vehicle: saline
[4] = dose: 50.0 mg/kg/injection, schedule: Q01DX009 (ip), vehicle: saline with Tween-80
[5] = dose: 100.0 mg/kg/injection, schedule: Q01DX009 (ip), vehicle: saline with Tween-80
[6] = dose: 200.0 mg/kg/injection, schedule: Q01DX009 (ip), vehicle: saline with Tween-80
[7] = dose: 100.0 mg/kg/injection, schedule: Q04DX003 (ip), vehicle: saline with Tween-80
[8] = dose: 200.0 mg/kg/injection, schedule: Q04DX003 (ip), vehicle: saline with Tween-80
[9] = dose: 400.0 mg/kg/injection, schedule: Q04DX003 (ip), vehicle: saline with Tween-80

Measured: T/C

Nc1ccc(Cc2ccc(Br)cc2)cc1
inactive: dose: 75.0 mg/kg/injection, schedule: Q01DX001 (ip), vehicle: acetone 91 % of control | dose: 150.0 mg/kg/injection, schedule: Q01DX001 (ip), vehicle: acetone 94 % of control | dose: 300.0 mg/kg/injection, schedule: Q01DX001 (ip), vehicle: acetone 94 % of control

O=C(Nc1ccc(N=Nc2ccccc2)cc1)C(F)(F)F
inactive: [1] 102 % of control | [2] 109 % of control | [3] 93 % of control

COc1ccc(C(C)CO)cc1 (stereo not given)
inactive: [4] 102 % of control | [5] 94 % of control | [6] 102 % of control

C#CCI
inactive: dose: 37.5 mg/kg/injection, schedule: Q04DX003 (ip), vehicle: Klucel (hydroxypropylcellulose) (HPC) 108 % of control | dose: 75.0 mg/kg/injection, schedule: Q04DX003 (ip), vehicle: Klucel (hydroxypropylcellulose) (HPC) 100 % of control | dose: 150.0 mg/kg/injection, schedule: Q04DX003 (ip), vehicle: Klucel (hydroxypropylcellulose) (HPC) 103 % of control

CCOC1=NN(c2ccccc2)C(=O)C1
inactive: [5] 104 % of control | [6] 101 % of control | dose: 400.0 mg/kg/injection, schedule: Q01DX009 (ip), vehicle: saline with Tween-80 97 % of control

OC(CCl)Cc1ccccc1 (stereo not given)
inactive: dose: 25.0 mg/kg/injection, schedule: Q01DX009 (ip), vehicle: saline with Tween-80 93 % of control | [4] 90 % of control | [5] 92 % of control

CCCC(CC(=O)O)OC (stereo not given)
inactive: [1] 103 % of control | [2] 110 % of control | [3] 110 % of control

COc1ccc(C2c3cc(OC)c(OC)cc3CC3C(=O)OCC32)cc1OC (stereo not given)
inactive: dose: 100.0 mg/kg/injection, schedule: Q04DX003 (ip), vehicle: Klucel (hydroxypropylcellulose) (HPC) 98 % of control | dose: 200.0 mg/kg/injection, schedule: Q04DX003 (ip), vehicle: Klucel (hydroxypropylcellulose) (HPC) 93 % of control | dose: 400.0 mg/kg/injection, schedule: Q04DX003 (ip), vehicle: Klucel (hydroxypropylcellulose) (HPC) 93 % of control

C=CC1CCN(CCn2cnc3c(N)ncnc32)CC1
inactive: [7] 97 % of control | [8] 103 % of control | [9] 97 % of control

O=S(=O)(O)C1(C(Cl)Cl)CCCCC1 (tested in a mixture with another compound)
inactive: dose: 9.0 mg/kg/injection, schedule: Q01DX001 (ip), vehicle: other 100 % of control | dose: 18.0 mg/kg/injection, schedule: Q01DX001 (ip), vehicle: other 105 % of control | dose: 37.0 mg/kg/injection, schedule: Q01DX001 (ip), vehicle: other 105 % of control | dose: 75.0 mg/kg/injection, schedule: Q01DX001 (ip), vehicle: other 104 % of control | dose: 150.0 mg/kg/injection, schedule: Q01DX001 (ip), vehicle: other 111 % of control | dose: 300.0 mg/kg/injection, schedule: Q01DX001 (ip), vehicle: other 115 % of control

CCCCN(CCC#N)C(N)=O
inactive: dose: 100.0 mg/kg/injection, schedule: Q01DX Z (ip), vehicle: methylcellulose (MC) 100 % of control

CCOC(=O)C(=O)Nc1ccc([N+](=O)[O-])cc1
inactive: [7] 87 % of control | [8] 98 % of control | [9] 87 % of control

CCCCCCCCCCCCC(=O)N1CCCCCC1
inactive: dose: 100.0 mg/kg/injection, schedule: Q04DX002 (ip), vehicle: saline 102 % of control | dose: 200.0 mg/kg/injection, schedule: Q04DX002 (ip), vehicle: saline 102 % of control | dose: 400.0 mg/kg/injection, schedule: Q04DX002 (ip), vehicle: saline 91 % of control

CCCCCCCCCCCCCCCCCC(=O)NCC[N+](C)(C)C
inactive: dose: 5.0 mg/kg/injection, schedule: Q01DX001 (ip), vehicle: saline 98 % of control | dose: 10.0 mg/kg/injection, schedule: Q01DX001 (ip), vehicle: saline 96 % of control | dose: 20.0 mg/kg/injection, schedule: Q01DX001 (ip), vehicle: saline 98 % of control | dose: 40.0 mg/kg/injection, schedule: Q01DX001 (ip), vehicle: saline 93 % of control | dose: 80.0 mg/kg/injection, schedule: Q01DX001 (ip), vehicle: saline 102 % of control
